In the Deep4Chem optical property database:
Blank lines part the entries; values can stand above or below the compound they belong to.

Test: photoluminescence quantum yield (fraction); solvent given as SMILES

photoluminescence quantum yield (in C1CCOC1): 0.01
photoluminescence quantum yield (in CC(C)O): 0.01
photoluminescence quantum yield (in CO): 0.01
photoluminescence quantum yield (in CS(C)=O): 0.01
photoluminescence quantum yield (in ClC(Cl)Cl): 0.01
photoluminescence quantum yield (in ClCCl): 0.01
SMILES: COc1ccccc1-c1c(-c2ccccc2O)nc(-c2ccc(C(F)(F)F)cc2)n1-c1ccc(C)cc1

photoluminescence quantum yield (in ClCCl): 0.61
SMILES: COc1ccc(-c2c3cc4cc(C)sc4cc3c(-c3ccc(OC)cc3)c3cc4cc(C)sc4cc23)cc1

photoluminescence quantum yield (in ClCCl): 0.47
SMILES: CCC1=C(CC)c2cccc3c2c(cc2nc4ccccc4nc23)O1

SMILES: CCC1=C(C)C2=C(C)c3cc(I)c(I)n3[B-](F)(F)[N+]2=C1C
photoluminescence quantum yield (in C1CCCCC1): 0.2
photoluminescence quantum yield (in CC(C)=O): 0.13
photoluminescence quantum yield (in CCO): 0.16
photoluminescence quantum yield (in CCOC(C)=O): 0.15
photoluminescence quantum yield (in CO): 0.13
photoluminescence quantum yield (in OCC(F)(F)F): 0.11

photoluminescence quantum yield (in ClCCl): 0.03
SMILES: COc1ccc(C#Cc2c3cc4ccccc4cc3c(C#Cc3ccc(OC)cc3)c3cc4ccccc4cc23)cc1

SMILES: CCN(CC)c1ccc(/C=C/c2ccc(-c3ccc(/C=C/c4ccc(N(CC)CC)cc4)s3)s2)cc1
photoluminescence quantum yield (in C1CCOC1): 0.14
photoluminescence quantum yield (in CC#N): 0.13
photoluminescence quantum yield (in CC(C)=O): 0.13
photoluminescence quantum yield (in CN(C)C=O): 0.12
photoluminescence quantum yield (in Cc1ccccc1): 0.14

photoluminescence quantum yield (in CS(C)=O): 0.42
SMILES: Cc1cccn2c1cc1c3ccccc3nc(-c3ccco3)c12

SMILES: CCN(CC)c1ccc2cc(/C=C/C3=CC(/C=C/c4cc5ccc(N(CC)CC)cc5oc4=O)=[O+][B-](F)(F)O3)c(=O)oc2c1
photoluminescence quantum yield (in CC#N): 0.012
photoluminescence quantum yield (in CC(C)=O): 0.032
photoluminescence quantum yield (in CCOC(C)=O): 0.418
photoluminescence quantum yield (in CN(C)C=O): 0.096
photoluminescence quantum yield (in CS(C)=O): 0.008
photoluminescence quantum yield (in Cc1ccccc1): 0.849
photoluminescence quantum yield (in ClC(Cl)Cl): 0.504
photoluminescence quantum yield (in ClCCl): 0.271

SMILES: F[B-]1(F)N2C(=Nc3cccc4cccc2c34)c2cccc[n+]21
photoluminescence quantum yield (in CC#N): 0.0002
photoluminescence quantum yield (in CO): 0.007
photoluminescence quantum yield (in CS(C)=O): 0.0005
photoluminescence quantum yield (in Cc1ccccc1): 0.006

SMILES: C(#Cc1cc2ccc3cc(C#Cc4ccccc4)cc4ccc(c1)c2c34)c1ccccc1
photoluminescence quantum yield (in Cc1ccccc1): 0.29

SMILES: COC(=O)C(Cc1ccc2oc(-c3ccc4c(c3)c3ccccc3n4-c3ccccc3)nc2c1)NC(=O)OC(C)(C)C (stereo not drawn)
photoluminescence quantum yield (in C1CCCCC1): 0.76
photoluminescence quantum yield (in C1CCOC1): 0.84
photoluminescence quantum yield (in C1COCCO1): 1
photoluminescence quantum yield (in CC1CCCO1): 0.93
photoluminescence quantum yield (in CC1COC(=O)O1): 1
photoluminescence quantum yield (in CC#N): 0.99
photoluminescence quantum yield (in CC(C)=O): 0.63
photoluminescence quantum yield (in CC(C)CC(C)(C)C): 0.86
photoluminescence quantum yield (in CC(C)CO): 1
photoluminescence quantum yield (in CC(C)O): 1
photoluminescence quantum yield (in CC(C)OC(C)C): 0.55
photoluminescence quantum yield (in CC(O)CO): 1
photoluminescence quantum yield (in CCC(C)CC): 0.59
photoluminescence quantum yield (in CCCCC): 0.59
photoluminescence quantum yield (in CCCCCC): 0.58
photoluminescence quantum yield (in CCCCCCCCC): 0.72
photoluminescence quantum yield (in CCCCCCCCCC): 0.75
photoluminescence quantum yield (in CCCCCCCO): 1
photoluminescence quantum yield (in CCCCCCO): 0.94
photoluminescence quantum yield (in CCCCCO): 1
photoluminescence quantum yield (in CCCCO): 1
photoluminescence quantum yield (in CCO): 1
photoluminescence quantum yield (in CCOC(C)=O): 0.96
photoluminescence quantum yield (in CCOCC): 0.68
photoluminescence quantum yield (in CN(C)C=O): 1
photoluminescence quantum yield (in CO): 0.99
photoluminescence quantum yield (in COCCOC): 0.7
photoluminescence quantum yield (in CS(C)=O): 0.88
photoluminescence quantum yield (in Cc1ccccc1): 0.78
photoluminescence quantum yield (in Cc1ccccc1C): 0.92
photoluminescence quantum yield (in ClC(Cl)Cl): 0.93
photoluminescence quantum yield (in ClCCl): 0.94
photoluminescence quantum yield (in NC=O): 0.82
photoluminescence quantum yield (in OC1CCCCC1): 0.95
photoluminescence quantum yield (in OCCO): 1
photoluminescence quantum yield (in c1ccccc1): 0.97

SMILES: CC(C)(C)c1ccc(C(C)(C)C)c(N2C(=O)c3cccc4c(-c5ccc(-c6ccc(N(c7ccccc7)c7ccccc7)cc6)s5)ccc(c34)C2=O)c1
photoluminescence quantum yield (in Cc1ccccc1): 0.56

photoluminescence quantum yield (in CC#N): 0.014
SMILES: C[C@@]12SC(Cl)=CC1=c1nc(-c3ccccc3)[nH]c1=C1C=C(Cl)S[C@]12C

photoluminescence quantum yield (in ClCCl): 0.86
SMILES: O=S1(=O)c2ccc(-c3ccc(-n4c5ccccc5c5ccccc54)cc3)cc2C2(c3ccccc3-c3ccccc32)c2cc(-c3ccc(-n4c5ccccc5c5ccccc54)cc3)ccc21

photoluminescence quantum yield (in CC#N): 0.38
SMILES: O=C(O)c1ccc(-c2nc(-c3ccccc3)c3c4ccccc4ccn23)cc1

SMILES: O=Cc1ccc2c(c1)c1ccccc1n2-c1cc2ccccc2c2ccccc12
photoluminescence quantum yield (in CC#N): 0.015
photoluminescence quantum yield (in CCCCC): 0.025
photoluminescence quantum yield (in Cc1ccccc1): 0.022
photoluminescence quantum yield (in ClCCl): 0.03

SMILES: Cc1cc(C)c(B(c2c(C)cc(C)cc2C)N2c3ccccc3C(c3ccccc3)(c3ccccc3)c3ccccc32)c(C)c1
photoluminescence quantum yield (in C1CCCCC1): 0.732
photoluminescence quantum yield (in Cc1ccccc1): 0.974
photoluminescence quantum yield (in ClCCl): 0.891

photoluminescence quantum yield (in CC#N): 0
SMILES: O=[N+]([O-])c1ccc(C#Cc2ccccc2C#Cc2ccc([N+](=O)[O-])cc2)cc1

photoluminescence quantum yield (in CCOC(C)=O): 0.35
SMILES: CCCCCCCCCCCCOc1ccc(C#CC(C#Cc2ccc(OCCCCCCCCCCCC)cc2)=Cc2cc(C=C(C#Cc3ccc(OCCCCCCCCCCCC)cc3)C#Cc3ccc(OCCCCCCCCCCCC)cc3)cc(C=C(C#Cc3ccc(OCCCCCCCCCCCC)cc3)C#Cc3ccc(OCCCCCCCCCCCC)cc3)c2)cc1

photoluminescence quantum yield (in CC#N): 0.69
SMILES: CC1=CC(/C=C/c2ccc([N+](C)(C)C)cc2)=[N+]2C1=C(c1ccc(I)cc1)c1c(C)cc(/C=C/c3ccc([N+](C)(C)C)cc3)n1[B-]2(F)F

photoluminescence quantum yield (in CC#N): 0.06
photoluminescence quantum yield (in c1ccccc1): 0.084
SMILES: COc1ccc(-c2cc(-c3ccc(C)cc3)nc3c(C#N)c(N4CCCC4)nc(N)c23)cc1

photoluminescence quantum yield (in CCCCCC): 0.001
photoluminescence quantum yield (in CCO): 0.09
photoluminescence quantum yield (in CO): 0.12
photoluminescence quantum yield (in ClCCl): 0.04
photoluminescence quantum yield (in c1ccccc1): 0.02
SMILES: C(=C\c1cnccn1)/c1ccc2nccnc2c1

SMILES: O=C1/C(=C\c2ccc(N(c3ccccc3)c3ccccc3)cc2)S(=O)(=O)c2ccccc21
photoluminescence quantum yield (in C1CCOC1): 0.037
photoluminescence quantum yield (in C1COCCO1): 0.324
photoluminescence quantum yield (in CC#N): 0.002
photoluminescence quantum yield (in CC(C)=O): 0.003
photoluminescence quantum yield (in CCOC(C)=O): 0.036
photoluminescence quantum yield (in CN(C)C=O): 0.024
photoluminescence quantum yield (in CO): 0.021
photoluminescence quantum yield (in CS(C)=O): 0.032
photoluminescence quantum yield (in Cc1ccccc1): 0.559
photoluminescence quantum yield (in ClC(Cl)Cl): 0.142
photoluminescence quantum yield (in ClCCl): 0.022

photoluminescence quantum yield (in ClCCl): 0.018
SMILES: COc1ccc(C(=O)c2c(C)c3ccc4cccc5c6cccc7ccc2c(c76)c3c45)cc1

photoluminescence quantum yield (in CO): 0.37
photoluminescence quantum yield (in ClC(Cl)Cl): 0.56
photoluminescence quantum yield (in O): 0.031
SMILES: COCCOCCOCCN1C(=O)c2cc(NCCOCCO)c3c4c(cc(NCCOCCO)c(c24)C1=O)C(=O)N(CCOCCOCCOC)C3=O

photoluminescence quantum yield (in ClC(Cl)Cl): 0.79
SMILES: N#Cc1nc(N(Cc2ccccc2F)Cc2ccccc2F)c(C#N)nc1N(Cc1ccccc1F)Cc1ccccc1F

photoluminescence quantum yield (in CN(C)C=O): 0.2
SMILES: NNC(=O)c1ccc(/C=C/c2ccc(C(=O)NN)cc2)cc1

photoluminescence quantum yield (in CS(C)=O): 0.013
photoluminescence quantum yield (in O): 0.013
SMILES: CC1(C)C(/C=C/C=C/c2cc3ccc(O)cc3oc2=O)=[N+](CCCS(=O)(=O)[O-])c2ccccc21

photoluminescence quantum yield (in CC#N): 0.03
photoluminescence quantum yield (in CCCCCC): 0.03
photoluminescence quantum yield (in CCOC(C)=O): 0.03
photoluminescence quantum yield (in CO): 0.02
photoluminescence quantum yield (in ClCCl): 0.04
SMILES: CCCSc1ccc2n1[B-](F)(F)[N+]1=CC=CC1=C2c1ccccc1

photoluminescence quantum yield (in CS(C)=O): 0.62
SMILES: COc1cccc(-c2nc3sc4ccccc4c3s2)c1

SMILES: CCOC(=O)COc1ccc(/C=C/C2=C3c4ccccc4C(c4[nH]c(C)cc4C)=[N+]3[B-](F)(F)n3c(/C=C/c4ccc(OCC(=O)OCC)cc4)cc(C)c32)cc1
photoluminescence quantum yield (in C1CCOC1): 0.05
photoluminescence quantum yield (in CC#N): 0.009
photoluminescence quantum yield (in CCCCCC): 0.04
photoluminescence quantum yield (in CO): 0.002
photoluminescence quantum yield (in Cc1ccccc1): 0.009
photoluminescence quantum yield (in ClCCl): 0.012

photoluminescence quantum yield (in ClCCl): 0.2
SMILES: CCCCC(CC)COc1ccc2nc(-c3ccc(-c4cccs4)s3)sc2c1 (stereo not drawn)

photoluminescence quantum yield (in ClCCl): 0.24
SMILES: COc1ccc(C#Cc2nc3ccccc3nc2-c2ccn(-c3ccccc3)c2)cc1

photoluminescence quantum yield (in C1COCCO1): 0.75
photoluminescence quantum yield (in CC#N): 0.47
photoluminescence quantum yield (in CO): 0.32
SMILES: N#Cc1ccc(/C=C/C=C/C2=NC3C(=O)NC(N)=NC3N2[C@H]2C[C@H](O)[C@@H](CO)O2)cc1 (stereo partly drawn)

photoluminescence quantum yield (in C1CCOC1): 0.001
SMILES: C(=C1c2ccccc2CCc2ccccc21)c1ccc(C=C2c3ccccc3CCc3ccccc32)cc1

photoluminescence quantum yield (in CO): 0.18
photoluminescence quantum yield (in CS(C)=O): 0.37
photoluminescence quantum yield (in O): 0.01
SMILES: CCCN1/C(=C/C=C(/C=C/C2=[N+](CCC)c3ccccc3C2(C)C)c2ccc3ccccc3n2)C(C)(C)c2ccccc21

photoluminescence quantum yield (in ClC(Cl)Cl): 0.75
SMILES: N#CC1=CC(c2ccccc2)=CC(C#N)=P1(c1ccccc1)c1ccccc1

SMILES: N#CC=C(c1ccc(N2c3ccccc3Oc3ccccc32)cc1)c1ccc(N2c3ccccc3Oc3ccccc32)cc1
photoluminescence quantum yield (in Cc1ccccc1): 0.371

photoluminescence quantum yield (in C1CCCCC1): 0.082
photoluminescence quantum yield (in C1CCOC1): 0.13
photoluminescence quantum yield (in CN(C)C=O): 0.44
photoluminescence quantum yield (in CO): 0.37
photoluminescence quantum yield (in ClC(Cl)Cl): 0.26
photoluminescence quantum yield (in c1ccccc1): 0.2
SMILES: CC1(C)Cc2c(c3ccccc3c3nc4ccccc4nc23)O1

SMILES: c1ccc(-c2nc3c4ccccc4c4ccccc4c3n2-c2ccc(-c3nc4c5ccccc5c5ccccc5c4n3-c3ccccc3)cc2)cc1
photoluminescence quantum yield (in Cc1ccccc1): 0.82

SMILES: CCC1(CC)c2cc(/C=C/c3ccc(/C=C/c4ccc5c(c4)C(CC)(CC)c4cc(N6c7ccccc7Sc7ccccc76)ccc4-5)cc3)ccc2-c2ccc(N3c4ccccc4Sc4ccccc43)cc21
photoluminescence quantum yield (in C1CCOC1): 0.33
photoluminescence quantum yield (in CC#N): 0.26
photoluminescence quantum yield (in CCCCCC): 0.72
photoluminescence quantum yield (in Cc1ccccc1): 0.58
photoluminescence quantum yield (in ClCCl): 0.33

photoluminescence quantum yield (in CC#N): 0.56
photoluminescence quantum yield (in CO): 0.55
photoluminescence quantum yield (in O): 0.62
SMILES: CNCCCC1c2ccccc2C=Cc2ccccc21
